Test results published in patent US8653056B2, “Method of preparation of a soluble formulation of water-insoluble pentacyclic and tetracyclic terpenoids, a soluble formulation of a pentacyclic or tetracyclic terpenoid and a pharmaceutical composition containing this soluble formulation” (Univerzita Karlova V Praze, Prirodovedecka Fakulta, priority 2006, dated 2014).

test: Concentration of dissolved triterpenoid in the aqueous cyclodextrin solution (HPLC-ESI MS); format: physicochemical; conditions: solution method A: water, saturated sodium hydrogencarbonate solution, ethanol, 2-hydroxypropyl-γ-cyclodextrin, 50° C.
Procedure: (§1) Into the resulting colourless, viscous solution, soluble triterpene derivative (1.50 g) is added at once and the mixture is again vigorously stirred at the temperature of 50° C. […] After the triterpenoid is completely dissolved, the resulting clear solution is cooled to room temperature, filtered with a syringe filter (hydrophilic, pore size 0.22 μm) in order to be sterile and is placed in a refrigerator.
as §1, with “Method B: In a mixture of water (14.0 ml) and propylene glycol (6.0 ml), 2-hydroxypropyl-γ-cyklodextrin (7.00 g) is dissolved at the temperature of 50° C. under vigorous stirring. Into” for “Into”, “derivate (1.00” for “derivative (1.50”, “and” for “and the mixture”
Analytic Determination of the Concentration of Dissolved Triterpenoids in the Application Form and in Plasma Samples
HPLC-ESI MS technique was used or the determination of the concentration of dissolved triterpenoids. The samples were measured in one analytical batch with calibration solutions and blind control. The sample for the measurement was prepared from 50 μl of aqueous solution containing the inclusion compound by dilution with methanol to the volume of 10 ml. Subsequently, 10 μl of the sample solution after the first dilution is further diluted to 1 ml by the mobile phase. The blind control was obtained from 50 μl of pre-prepared aqueous solution of 2-hydroxypropyl-γ-cyklodextrin by dilution with methanol to 10 ml. Subsequently, 10 μl of the blind control solution after the first dilution is further diluted to 1 ml by methanol. Stock solutions of standards (concentration 0.2 mg/ml) were prepared by weighing 2.00 mg of analyte to 10 ml graduated flask and dissolution in methanol. The calibration samples were then prepared by dilution of the stock solution with mobile phase (0.4 μg/ml resp. 4 μg/ml).
The concentration was determined by comparison with standard and calculated to the original solution containing the inclusion compound.

Structure (SMILES) | Conc. of dissolved substance
CCOC(=O)[C@@]12CC[C@]3(C)[C@H](CC[C@@H]4[C@@]5(C)CC[C@H](OC(=O)c6ccccc6C(=O)O)C(C)(C)[C@@H]5CC[C@]43C)C1=C(C(C)C)C(=O)C2 [4f] | 28000 µg/mL
CCOC(=O)[C@@]12CC[C@]3(C)[C@H](CC[C@@H]4[C@@]5(C)CC[C@H](OC(=O)CC(C)(C)CC(=O)O)C(C)(C)[C@@H]5CC[C@]43C)C1=C(C(C)C)C(=O)C2 [4q] | 58000 µg/mL
COC(=O)[C@@]12CC[C@]3(C)[C@H](CC[C@@H]4[C@@]5(C)CC[C@H](OC(=O)CC(C)(C)C(=O)O)C(C)(C)[C@@H]5CC[C@]43C)C1=C(C(C)C)C(=O)C2 [4s] | 44000 µg/mL
CC1(C)C(OC(=O)CCC(=O)O)CCC2(C)C1CCC1(C)C2CCC2C(=O)C(COC(=O)CCC(=O)O)(C(=O)O)CCC21C (centres unmarked) [7c] | 73000 µg/mL
CC1(C)C(OC2OC(CO)C(O)C(O)C2O)CCC2(C)C1CCC1(C)C2CCC2C(=O)C(COC3OC(CO)C(O)C(O)C3O)(C(=O)O)CCC21C (centres unmarked) [7f] | 72000 µg/mL
C=C(C)[C@@H]1CC[C@]2(C(=O)O)CC[C@]3(C)[C@H](CC[C@@H]4[C@@]5(C)CC[C@H](O)C(C)(C)[C@@H]5CC[C@]43C)[C@@H]12 [compound 2, Betulinic acid, reference compound] | 38000 µg/mL

Now from value to compound:

Conc. of dissolved substance | Structure (SMILES)
44000 µg/mL | CCOC(=O)[C@@]12CC[C@]3(C)[C@H](CC[C@@H]4[C@@]5(C)CC[C@H](OC(=O)CC(C)(C)C(=O)O)C(C)(C)[C@@H]5CC[C@]43C)C1=C(C(C)C)C(=O)C2 [4r]
44000 µg/mL | CC(C)C1=C2[C@H]3CC[C@@H]4[C@@]5(C)CC[C@H](OC(=O)CC(C)(C)CC(=O)O)C(C)(C)[C@@H]5CC[C@@]4(C)[C@]3(C)CC[C@@]2(C(=O)O)CC1=O [4u]
44000 µg/mL | CCOC(=O)[C@@]12CC[C@]3(C)[C@H](CC[C@@H]4[C@@]5(C)CC[C@H](OC(=O)COCC(=O)O)C(C)(C)[C@@H]5CC[C@]43C)C1=C(C(C)C)C(=O)C2 [4x]
40000 µg/mL | C=C(C=O)[C@@H]1CC[C@]2(C(=O)OCC)CC[C@]3(C)[C@H](CC[C@@H]4[C@@]5(C)CC[C@H](OC(=O)c6ccccc6C(=O)O)C(C)(C)[C@@H]5CC[C@]43C)[C@@H]12 [hemiphtalate 3b]

same assay, conditions: solution method B: water, propylene glycol, 2-hydroxypropyl-γ-cyclodextrin, 50° C.

Structure (SMILES) | Conc. of dissolved substance
CC1(C)C(OC2OC(CO)C(O)C(O)C2O)CCC2(C)C1CCC1(C)C2CCC2C(=O)C(COC3OC(CO)C(O)C(O)C3O)(C(=O)O)CCC21C (centres unmarked) [7f] | 79000 µg/mL
C=C(C)[C@@H]1CC[C@]2(CO)CC[C@]3(C)[C@H](CC[C@@H]4[C@@]5(C)CC[C@H](O)C(C)(C)[C@@H]5CC[C@]43C)[C@@H]12 [Betulin, reference compound] | n (n = concentration lower than the detection threshold, i.e. 1 ng/ml)

Results, then the compound that gave them:

Conc. of dissolved substance | Structure (SMILES)
60000 µg/mL | CCOC(=O)[C@@]12CC[C@]3(C)[C@H](CC[C@@H]4[C@@]5(C)CC[C@H](O[C@@H]6C[C@@H](OC(C)=O)[C@@H](OC(C)=O)[C@@H](COC(C)=O)O6)C(C)(C)[C@@H]5CC[C@]43C)C1=C(C(C)C)C(=O)C2 [4j]
61000 µg/mL | COC(=O)[C@@]12CC[C@]3(C)[C@H](CC[C@@H]4[C@@]5(C)CC[C@H](O[C@@H]6C[C@@H](OC(C)=O)[C@H](OC(C)=O)[C@@H](COC(C)=O)O6)C(C)(C)[C@@H]5CC[C@]43C)C1=C(C(C)C)C(=O)C2 [4l]
